Experiments:
HeLa cells [1] = assay: Cellular uptake by DOX fluorescence imaging; format: cell-based; conditions: 10 μg/mL
Description: HeLa cells were co-cultured with DOX-loaded polymersomes in DMEM at a drug concentration of 10 μg/mL, as described in Example 6. At time points of 1, 2, 4 hours, the culture medium was removed and cells were washed with PBS three times and then fixed in 4% paraformaldehyde. After 10 min, paraformaldehyde was removed and cells were washed three times with PBS then stained with DAPI (4′,6-diamidino-2-phenylindole) for 2 min. DOX fluorescence from polymersomes and DAPI fluorescence from cellular nuclei were visualized and photographed by Axiovert 25 Zeiss light microscope. DOX fluorescence from polymersomes appeared red, and DAPI fluorescence from cellular nuclei appeared blue.
Cellular uptake of DOX-PS particles were investigated through imaging of DOX fluorescence after 1, 3 and 5 hours of co-culture with HeLa cells. […] The first, second, and third rows correspond to incubation times of 1, 3, and 5 hours respectively.

HeLa cells [2] = assay: Cell viability by MTS assay; format: cell-based; conditions: 10 μg/mL, FIG. 10
Description: HeLa cells were used as a model cancer cell for cytotoxicity evaluation. Trypsinized HeLa cells were seeded onto 48-well tissue culture polystyrene (TCPS) plates at 10,000 cells cm^−2. Cells were then cultured in Dulbecco's Modified Eagle's Medium (DMEM) supplemented with FBS, 100 U/mL penicillin, 2 mM L-glutamine, and 0.1 mg/mL streptomycin for 24 h to allow adhesion. To evaluate the cytotoxicity of PEG-Fu-DiTT polymersomes, empty samples without loaded drugs were prepared, dialyzed against phosphate-buffered saline (PBS) for 2 days, and lyophilized for 3 days. The dried polymersomes were then incubated with HeLa cells at concentrations of 0.1, 0.5, 1.0 and 2.0 mg/mL for 3 days. Wells seeded with the same HeLa cell density but without added polymersomes were used as positive controls. The relative cell densities in each group were determined by MTS assay (CellTiter 96 Aqueous One Solution, Promega, Madison, Wis.) by comparing the optical density (OD) value to that of positive controls (which were set at 100% cell density). To evaluate the cancer killing effect, similar cell culture procedures were used by adding DOX-loaded polymersomes or free drugs at concentrations of 0.01, 0.1, 0.5, 1, 5, 10 and 50 μg/mL.

## COc1cccc2c1C(=O)c1c(O)c3c(c(O)c1C2=O)C[C@@](O)(C(=O)CO)C[C@@H]3O[C@H]1C[C@H](N)[C@H](O)[C@H](C)O1 [unencapsulated DOX, doxorubicin]
HeLa cells [1]; 1 hour
  DOX fluorescence in cells: red fluorescence
HeLa cells [1]; 3 hour
  DOX fluorescence in cells: slight increase in intensity
HeLa cells [1]; 5 hour
  DOX fluorescence in cells: slight increase in intensity
HeLa cells [2]
  effect on cancer cell viability: inhibition effect

— patent US11040009B2, “Expansile crosslinked polymersome for ph-sensitive delivery of anticancer drugs” (Mayo Foundation for Medical Education and Research, priority 2016, dated 2021)
